Entries after “also recorded” stand apart in the source; their conditions may differ.
Legend:
Assay type in all cases: cell-based
[1] = test system: mitochondria in HeLa cells; experiment: Mitochondrial localisation and membrane-potential dependence in HeLa cells (oligomycin / CCCP treatment, confocal imaging)
Protocol: (§1) Mitochondrial stains were diluted to working concentrations from 10 mM DMSO stock solutions into DMEM containing 10% FCS and 25 mM HEPES. Solutions were incubated with HeLa cells at 37° C. in a humidified 5% CO2 incubator for the indicated period of time prior to imaging, typically without a washout step (though a washout step can be performed). A Nikon A1R TiE confocal laser scanning microscope equipped with environmental chamber (37° C.) was used for live-cell imaging, employing 561 nm and 640 nm diode laser lines, a Nikon A1R Plan APO VC 60x Oil lens (NA 1.4), pinhole at 1AU. The images were acquired using NIS Elements software and processed using ImageJ.

[2] = test system: mitochondria in HeLa cells; experiment: Time-course live-cell confocal imaging of stained HeLa cells (photostability, localisation, phototoxicity); settings: 50 nM for 60 mins; for (photo)-toxicity during prolonged imaging / localisation at mitochondria over time / photostability / signal over time: live imaging every 5 seconds for 240 frames
Protocol: Within this time frame, COMPOUND 1 intensity drops by ˜25% during the imaging period compared to the comparator which drops by 65%.
Data from two samples of COMPOUND 3,measured at different timepoints is overlaid in the graph (right).
as §1

HeLa cells = experiment: Optimization of stain concentration for imaging HeLa cells; settings: 50 nM, 60 mins, no washout, same laser power/settings
Protocol: HeLa cells were incubated with the comparator or COMPOUND 1 for 60 mins at indicated doses and imaged at the same laser power/settings. NOTE: no washout step to remove unbound comparator was performed (manufacturer recommends this) to enable direct comparison with COMPOUND 1. Some toxicity is observed with 100 nM of comparator.
as §1

Row | Structure (SMILES) | effect of de-polarizing the mitochondrial membrane with CCCP on stain ([1]; HeLa cells, 50 nM stain for 60 mins, then CCCP 10 μM up to 60 minutes) | effect of hyper-polarizing the mitochondrial membrane with oligomycin on stain ([1]; HeLa cells, 50 nM stain for 60 mins, then Oligomycin 5 μg/mL up to 60 minutes) | localisation of stain ([1]; mitochondrial stain, due to charge potential across the mitochondrial membrane) | (photo)-toxicity during prolonged imaging [2] | localisation at mitochondria over time [2] | drop of normalized intensity during the imaging period ([2]; live imaging every 5 seconds for 240 frames (20 minutes), 100% = maximum intensity peak) [%] | imaging result (HeLa cells) | photostability / signal over time [2]
1 | C[Si]1(C)C2=CC(=[N+]3CCC3)C=CC2=C(c2ccccc2)c2ccc(N3CCC3)cc21 [COMPOUND 1, 1-(7-(azetidin-1-yl)-5,5-dimethyl-10-phenyldibenzo[b,e]silin-3 (5H)-ylidene)azetidin-1-ium chloride] | dispersion | accumulation | localizes specifically to the mitochondria | no apparent toxicity | remains clearly localized at the mitochondria; also recorded: appears to mark the mitochondria more clearly than COMPOUND 2 over time | ~25 | excellent results | –
2 | c1ccc(-c2c3ccc(=[N+]4CCC4)cc-3oc3cc(N4CCC4)ccc23)cc1 [COMPOUND 4, 1-(6-(azetidin-1-yl)-9-phenyl-3H-xanthen-3-ylidene)azetidin-1-ium chloride] | – | – | – | no observable phototoxicity effects | remain faithfully localized to mitochondria over the entire imaging period | – | – | higher signal retention over time than COMPOUND 3
3 | Cc1ccccc1-c1c2ccc(=[N+]3CCC3)cc-2oc2cc(N3CCC3)ccc12 [COMPOUND 3, 1-(6-(azetidin-1-yl)-9-(o-tolyl)-3H-xanthen-3-ylidene)azetidin-1-ium] | – | – | – | – | higher non-specific cytoplasmic background (and lower mitochondrial labelling) | – | – | retention of signal during the first 10 mins of imaging, but then the signal rapidly drops

— patent US20240385087A1, “METHOD FOR STAINING MITOCHONDRIA” (TOCRIS COOKSON LIMITED, priority 2021, published 2024)
